Reference: patent US10450316B2, “Certain protein kinase inhibitor” (Chongqing Fochon Pharmaceutical Co., Ltd., priority 2015, dated 2019)

tested on: BE(2)-C cell; assay: Cell proliferation assay (MTS) in BE(2)-C cells; format: cell-based; settings: Homo sapiens, inhibition of BE(2)-C cell proliferation, 48 h
Description: MTS testing kit was purchased from Promega. The DMEM, Fetal bovine serum and Penicillin-Streptomycin were purchased from Gibco. Dimethyl sulfoxide (DMSO) was purchased from Sigma.
To investigate whether a compound is able to inhibit the activity of CDK4/6 in cells, mechanism-based assays using BE(2)-C cell (ATCC® number:CRL-2268) were developed. In the assay, inhibition of CDK4/6 was detected by the inhibition of BE(2)-C cell cells proliferation. BE(2)-C cell cells were cultured in culture flasks to 40-80% confluence in DMEM plus 10% fetal bovine serum. Cells were collected and plated onto 96-well plates at cell density of 3000 cells/well. Plates were incubated overnight at 37° C., with 5% CO2 to adhere. Compounds were added to the plates, the final compound concentrations were 10000, 3333, 1111, […], 123.5, 41.2, 13.7, 4.6 and 1.5 nM. Place plates at 37° C., with 5% CO2 for 48 h. After removing the medium, 20 μl MTS/100 μl medium mixture solution were added to each well and incubate the plates for exactly 2 hours. The reaction was terminated by adding 25 μl 10% SDS per well. Measure absorbance at 490 nm and 650 nm (reference wavelength). IC50 was calculated using GraphPad Prism 5.0.
Select compounds prepared as described above were assayed according to the biological procedures described herein. “++++” stands for IC50 value below about 10 nM. “+++” stands for IC50 value between greater than about 10 nM to about 100 nM. “++” stands for IC50 value between greater than about 100 nM to about […]. “+” stands for IC50 value greater than 1 μM.

CN1CCC2(CC1)CN(Cc1ccc(Nc3ncc(F)c(-c4cc(F)c5nc6n(c5c4)[C@H](CF)CC6)n3)nc1)C2 [Example 21, (S)-5-fluoro-4-(5-fluoro-1-(fluoromethyl)-2,3-dihydro-1H-benzo[d]pyrrolo[1,2-a]imidazol-7-yl)-N-(5-((7-methyl-2,7-diazaspiro[3.5]nonan-2-yl)methyl)pyridin-2-yl)pyrimidin-2-amine] and CCN1CCC2(CC1)CN(Cc1ccc(Nc3ncc(F)c(-c4cc(F)c5nc6n(c5c4)[C@H](CF)CC6)n3)nc1)C2 [Example 22, (S)-N-(5-((7-ethyl-2,7-diazaspiro[3.5]nonan-2-yl)methyl)pyridin-2-yl)-5-fluoro-4-(5-fluoro-1-(fluoromethyl)-2,3-dihydro-1H-benzo[d]pyrrolo[1,2-a]imidazol-7-yl)pyrimidin-2-amine] cannot be ordered by IC50: over 100 nM for the first, over 100 nM for the second.

FC[C@@H]1CCc2nc3c(F)cc(-c4nc(Nc5ccc(CN6CC7(CNC7)C6)cn5)ncc4F)cc3n21 [Example 23, (S)-N-(5-((2,6-diazaspiro[3.3]heptan-2-yl)methyl)pyridin-2-yl)-5-fluoro-4-(5-fluoro-1-(fluoromethyl)-2,3-dihydro-1H-benzo[d]pyrrolo[1,2-a]imidazol-7-yl)pyrimidin-2-amine] and CN1CC2(C1)CN(Cc1ccc(Nc3ncc(F)c(-c4cc(F)c5nc6n(c5c4)[C@H](CF)CC6)n3)nc1)C2 [Example 24, (S)-5-fluoro-4-(5-fluoro-1-(fluoromethyl)-2,3-dihydro-1H-benzo[d]pyrrolo[1,2-a]imidazol-7-yl)-N-(5-((6-methyl-2,6-diazaspiro[3.3]heptan-2-yl)methyl)pyridin-2-yl)pyrimidin-2-amine] cannot be ordered by IC50: over 1000 nM for the first, over 100 nM for the second.

CCN1CC2(C1)CN(Cc1ccc(Nc3ncc(F)c(-c4cc(F)c5nc6n(c5c4)[C@H](CF)CC6)n3)nc1)C2 [Example 25, (S)-N-(5-((6-ethyl-2,6-diazaspiro[3.3]heptan-2-yl)methyl)pyridin-2-yl)-5-fluoro-4-(5-fluoro-1-(fluoromethyl)-2,3-dihydro-1H-benzo[d]pyrrolo[1,2-a]imidazol-7-yl)pyrimidin-2-amine] and CCN1CC2CN(Cc3ccc(Nc4ncc(F)c(-c5cc(F)c6nc7n(c6c5)[C@H](CF)CC7)n4)nc3)CC2C1 (stereo partly drawn) [Example 28, N-(5-((5-ethylhexahydropyrrolo[3,4-c]pyrrol-2(1H)-yl)methyl)pyridin-2-yl)-5-fluoro-4-((S)-5-fluoro-1-(fluoromethyl)-2,3-dihydro-1H-benzo[d]pyrrolo[1,2-a]imidazol-7-yl)pyrimidin-2-amine] fall in the same range of IC50: 10 to 100 nM for the first, 10 to 100 nM for the second.

First: FC[C@@H]1CCc2nc3c(F)cc(-c4nc(Nc5ccc(CN6CC7CNCC7C6)cn5)ncc4F)cc3n21 (stereo partly drawn) [Example 26, 5-fluoro-4-((S)-5-fluoro-1-(fluoromethyl)-2,3-dihydro-1H-benzo[d]pyrrolo[1,2-a]imidazol-7-yl)-N-(5-((hexahydropyrrolo[3,4-c]pyrrol-2(1H)-yl)methyl)pyridin-2-yl)pyrimidin-2-amine]
Second: CN1CC2CN(Cc3ccc(Nc4ncc(F)c(-c5cc(F)c6nc7n(c6c5)[C@H](CF)CC7)n4)nc3)CC2C1 (stereo partly drawn) [Example 27, 5-fluoro-4-((S)-5-fluoro-1-(fluoromethyl)-2,3-dihydro-1H-benzo[d]pyrrolo[1,2-a]imidazol-7-yl)-N-(5-((5-methylhexahydropyrrolo[3,4-c]pyrrol-2(1H)-yl)methyl)pyridin-2-yl)pyrimidin-2-amine]
The IC50 of the first is higher: over 100 nM for the first, 10 to 100 nM for the second. The second is the more potent here.

FC[C@@H]1CCc2nc3c(F)cc(-c4nc(Nc5ccc(CN6CCC7(CCNCC7)CC6)cn5)ncc4F)cc3n21 [Example 29, (S)-N-(5-((3,9-diazaspiro[5.5]undecan-3-yl)methyl)pyridin-2-yl)-5-fluoro-4-(5-fluoro-1-(fluoromethyl)-2,3-dihydro-1H-benzo[d]pyrrolo[1,2-a]imidazol-7-yl)pyrimidin-2-amine] showed an IC50 of over 100 nM.
